Experiments:
[1] = tested on: Wnt activity (Sp5-Luc reporter, SW480 colon carcinoma cells); test: Screening assay for Wnt activity: Sp5-Luc reporter gene assay in SW480 cells; format: cell-based; conditions: Homo sapiens, 42 h incubation, luminescence
Source text: The screening assay for Wnt activity is described as follows. Reporter cell lines can be generated by stably transducing cancer cell lines (e.g., colon cancer) or primary cells (e.g., IEC-6 intestinal cells) with a lentiviral construct that includes a Wnt-responsive promoter driving expression of the firefly luciferase gene.
SW480 colon carcinoma cells were transduced with a lentiviral vector expressing luciferase with a human Sp5 promoter consisting of a sequence of eight TCF/LEF binding sites. SW480 cells stably expressing the Sp5-Luc reporter gene and a hygromycin resistance gene were selected by treatment with 150 μg/ml of hygromycin for 7 days. These stably transduced SW480 cells were expanded in cell culture and used for all further screening activities. For Sp5-Luc reporter gene assays, the cells were plated at 10,000 cells/well in 96-well plates with growth medium containing 10% fetal calf serum and incubated overnight at 37° C. and 5% CO2. Each compound was dissolved in DMSO as a 10 mM stock in standard j-vials and used to prepare compound source plates in dose-response format with 3-fold serial dilutions and a 10 mM top concentration. Compound transfer from serially diluted source plates to assay plates containing the cells was accomplished using a pintool (Multimek 96, Beckman equipped with V&P Scientific FP1S50H pins) based liquid handling protocol. This protocol used a slotted pin to transfer 50 nl of compound from a source plate well to an assay plate well containing 50 μl of cells in growth medium. […] Control wells received 50 nl of DMSO treatment for normalization and calculating IC50 values. The treated cells were incubated at 37° C. and 5% CO2 for an additional forty-two hours. Following incubation, the growth medium was removed and 50 μl of BrightGlo luminescence reagent (Promega) was added to each well of the 96-well assay plates. The plates were placed on an orbital shaker for 5 min and then luminescence was quantified on the Victor3 (Perkin Elmer) plate reader. Readings were normalized to DMSO only treated cells, and normalized activities were utilized for IC50 calculations using the dose-response log (inhibitor) vs. response-variable slope (four parameters) nonlinear regression feature available in GraphPad Prism 5.0 or 6.0.

[2] = tested on: primary human fibroblasts derived from IPF patients (LL29 cells); test: Inhibition of fibrosis: TGF-β1-treated primary human fibroblasts from IPF patients (LL29), αSMA staining; format: cell-based; conditions: Fibroblast, 96 h, TGF-β1 20 ng/mL, 4 days, % αSMA-positive cells
Source text: The above synthesized compounds were screened using primary human fibroblasts (derived from IPF patients) treated with TGF-β1 to determine their ability to inhibit the fibrotic process.
Primary human fibroblasts derived from IPF patients (LL29 cells) [^1Xiaoqiu Liu, et. al., “Fibrotic Lung Fibroblasts Show Blunted Inhibition by cAMP Due to Deficient cAMP Response Element-Binding Protein Phosphorylation”, Journal of Pharmacology and Experimental Therapeutics (2005), 315(2), 678-687; ^2Watts, K. L., et. al., “RhoA signaling modulates cyclin D1 expression in human lung fibroblasts; implications for idiopathic pulmonary fibrosis”, Respiratory Research (2006), 7(1), 88] were obtained from American Type Culture Collection (ATCC) and expanded in F12 medium supplemented with 15% Fetal Bovine Serum and Penicillin/Streptomycin.
Each compound was dissolved in DMSO as a 10 mM stock and used to prepare compound source plates. Serial dilution (1:2, 11-point dose-response curves from 10 μM to 1.87 nM) and compound transfer was performed using the ECHO 550 (Labcyte, Sunnyvale, Calif.) into 384-well clear bottom assay plates (Greiner Bio-One) with appropriate DMSO backfill for a final DMSO concentration of 0.1%. LL29 cells were plated at 1,500 cells/well in 80 μl/well F12 medium supplemented with 1% Fetal Bovine Serum. One hour after addition of the cells, TGF-β1 (Peprotech; 20 ng/mL) was added to the plates to induce fibrosis (ref 1 and 2 above). Wells treated with TGF-β1 and containing DMSO were used as controls. Cells were incubated at 37° C. and 5% CO2 for 4 days. Following incubation for 4 days, SYTOX green nucleic acid stain (Life Technologies [Thermo Fisher Scientific]) was added to the wells at a final concentration of 1 uM and incubated at room temperature for 30 min. Cells were then fixed using 4% formaldehyde (Electron Microscopy Sciences), washed 3 times with PBS followed by blocking and permeabilization using 3% Bovine Serum Albumin (BSA; Sigma) and 0.3% Triton X-100 (Sigma) in PBS. Cells were then stained with antibody specific to α-smooth muscle actin (αSMA; Abcam) (ref 1 and 2 above) in 3% Bovine Serum Albumin (BSA; Sigma) and 0.3% Triton X-100 (Sigma) in PBS, and incubated overnight at 4° C. Cells were then washed 3 times with PBS, followed by incubation with Alexa Flor-647 conjugated secondary antibody (Life Technologies [Thermo Fisher Scientific]) and DAPI at room temperature for 1 hour. Cells were then washed 3 times with PBS and plates were sealed for imaging. αSMA staining was imaged by excitation at 630 nm and emission at 665 nm and quantified using the Compartmental Analysis program on the CellInsight CX5 (Thermo Scientific). Dead or apoptotic cells were excluded from analysis based on positive SYTOX green staining. % of total cells positive for αSMA were counted in each well and normalized to the average of 11 wells treated with TGF-β1 on the same plate using Dotmatics' Studies Software. The normalized averages (fold change over untreated) of 3 replicate wells for each compound concentration were used to create dose-responses curves and EC50 values were calculated using non-linear regression curve fit in the Dotmatics' Studies Software. The EC50 values are reported.

Structure (SMILES)	IC50 [1] [µM]	EC50 [2] [µM]
Cc1ccc(-c2nccc3[nH]c(-c4n[nH]c5ccc(-c6cncc(CN7CCCCC7)c6)cc45)nc23)s1 [Compound 353, 4-(5-Methylthiophen-2-yl)-2-(5-(5-(piperidin-1-ylmethyl)pyridin-3-yl)-1H-indazol-3-yl)-1H-imidazo[4,5-c]pyridine]	0.844	0.009
Cc1ccncc1-c1ccc2[nH]nc(-c3nc4c(-c5ccsc5)nccc4[nH]3)c2c1 [Compound 239, 2-(5-(4-Methylpyridin-3-yl)-1H-indazol-3-yl)-4-(thiophen-3-yl)-1H-imidazo[4,5-c]pyridine]	0.003	0.06
CC(=O)c1ccc(-c2nccc3[nH]c(-c4n[nH]c5ccc(-c6cncc(NC(=O)Cc7ccccc7)c6)cc45)nc23)s1 [Compound 374, N-(5-(3-(4-(5-Acetylthiophen-2-yl)-1H-imidazo[4,5-c]pyridin-2-yl)-1H-indazol-5-yl)pyridin-3-yl)-2-phenylacetamide]	0.009	0.009
CN(C)c1cncc(-c2ccc3[nH]nc(-c4nc5c(-c6cccs6)nccc5[nH]4)c3c2)c1 [Compound 293, N,N-Dimethyl-5-(3-(4-(thiophen-2-yl)-1H-imidazo[4,5-c]pyridin-2-yl)-1H-indazol-5-yl)pyridin-3-amine]	0.009	0.036
CC(C)(C)C(=O)Nc1cncc(-c2ccc3[nH]nc(-c4nc5c(-c6ccsc6)nccc5[nH]4)c3c2)c1 [Compound 242, N-(5-(3-(4-(Thiophen-3-yl)-1H-imidazo[4,5-c]pyridin-2-yl)-1H-indazol-5-yl)pyridin-3-yl)pivalamide]	0.0274	1.18
Fc1ccc(-c2nccc3[nH]c(-c4n[nH]c5ccc(-c6cncnc6)cc45)nc23)cc1 [Compound 52, 4-(4-Fluorophenyl)-2-(5-(pyrimidin-5-yl)-1H-indazol-3-yl)-1H-imidazo[4,5-c]pyridine]	0.025	0.539
CN(C)Cc1cncc(-c2ccc3[nH]nc(-c4nc5c(-c6cccs6)nccc5[nH]4)c3c2)c1 [Compound 299, N,N-Dimethyl-1-(5-(3-(4-(thiophen-2-yl)-1H-imidazo[4,5-c]pyridin-2-yl)-1H-indazol-5-yl)pyridin-3-yl)methanamine]	0.332	0.608
CCC(=O)Nc1cncc(-c2ccc3[nH]nc(-c4nc5c(-c6cccc(F)c6)nccc5[nH]4)c3c2)c1 [Compound 1, N-(5-(3-(4-(3-Fluorophenyl)-1H-imidazo[4,5-c]pyridin-2-yl)-1H-indazol-5-yl)pyridin-3-yl)propionamide]	0.001	0.02
Cc1ccc(-c2nccc3[nH]c(-c4n[nH]c5ccc(-c6cncc(NC(=O)CC(C)(C)C)c6)cc45)nc23)s1 [Compound 354, 3,3-Dimethyl-N-(5-(3-(4-(5-methylthiophen-2-yl)-1H-imidazo[4,5-c]pyridin-2-yl)-1H-indazol-5-yl)pyridin-3-yl)butanamide]	0.0127	0.086
CCNCc1cncc(-c2ccc3[nH]nc(-c4nc5c(-c6cc(F)cc(NCCN(C)C)c6)nccc5[nH]4)c3c2)c1 [Compound 422, N^1-(3-(2-(5-(5-((Ethylamino)methyl)pyridin-3-yl)-1H-indazol-3-yl)-1H-imidazo[4,5-c]pyridin-4-yl)-5-fluorophenyl)-N^2,N^2-dimethylethane-1,2-diamine]	0.108	0.108
CC(C)C(=O)Nc1cncc(-c2ccc3[nH]nc(-c4nc5c(N6CCN(C)CC6)nccc5[nH]4)c3c2)c1 [Compound 217, N-(5-(3-(4-(4-Methylpiperazin-1-yl)-1H-imidazo[4,5-c]pyridin-2-yl)-1H-indazol-5-yl)pyridin-3-yl)isobutyramide]	0.245	4.45
CCNCc1cncc(-c2ccc3[nH]nc(-c4nc5c(-c6ccoc6)nccc5[nH]4)c3c2)c1 [Compound 266, N-((5-(3-(4-(Furan-3-yl)-1H-imidazo[4,5-c]pyridin-2-yl)-1H-indazol-5-yl)pyridin-3-yl)methyl)ethanamine]	0.036	0.009
O=C(Nc1cncc(-c2ccc3[nH]nc(-c4nc5c(-c6ccccn6)nccc5[nH]4)c3c2)c1)C1CCC1 [Compound 150, N-(5-(3-(4-(Pyridin-2-yl)-1H-imidazo[4,5-c]pyridin-2-yl)-1H-indazol-5-yl)pyridin-3-yl)cyclobutanecarboxamide]	0.0514	1.52
Cc1cn(-c2nccc3[nH]c(-c4n[nH]c5ccc(-c6cncc(NC(=O)C(C)(C)C)c6)cc45)nc23)cn1 [Compound 190, N-(5-(3-(4-(4-Methyl-1H-imidazol-1-yl)-1H-imidazo[4,5-c]pyridin-2-yl)-1H-indazol-5-yl)pyridin-3-yl)pivalamide]	0.005	0.05
Cc1cn(-c2nccc3[nH]c(-c4n[nH]c5ccc(-c6cncc(NC(=O)CC(C)C)c6)cc45)nc23)cn1 [Compound 184, 3-Methyl-N-(5-(3-(4-(4-methyl-1H-imidazol-1-yl)-1H-imidazo[4,5-c]pyridin-2-yl)-1H-indazol-5-yl)pyridin-3-yl)butanamide]	0.002	0.049
CC(C)(C)CC(=O)Nc1cncc(-c2ccc3[nH]nc(-c4nc5c(-c6ccccc6F)nccc5[nH]4)c3c2)c1 [Compound 68, N-(5-(3-(4-(2-Fluorophenyl)-1H-imidazo[4,5-c]pyridin-2-yl)-1H-indazol-5-yl)pyridin-3-yl)-3,3-dimethylbutanamide]	0.02	0.009
O=C(Nc1cncc(-c2ccc3[nH]nc(-c4nc5c(-c6ccc(F)s6)nccc5[nH]4)c3c2)c1)C1CCC1 [Compound 332, N-(5-(3-(4-(5-Fluorothiophen-2-yl)-1H-imidazo[4,5-c]pyridin-2-yl)-1H-indazol-5-yl)pyridin-3-yl)cyclobutanecarboxamide]	0.0326	0.363
Oc1cncc(-c2ccc3[nH]nc(-c4nc5c(-c6cccc(F)c6)nccc5[nH]4)c3c2)c1 [Compound 1781, 5-(3-(4-(3-Fluorophenyl)-1H-imidazo[4,5-c]pyridin-2-yl)-1H-indazol-5-yl)pyridin-3-ol]	0.006	0.079
CC(C)(C)C(=O)Nc1cncc(-c2ccc3[nH]nc(-c4nc5c(-c6ccc(F)s6)nccc5[nH]4)c3c2)c1 [Compound 320, N-(5-(3-(4-(5-Fluorothiophen-2-yl)-1H-imidazo[4,5-c]pyridin-2-yl)-1H-indazol-5-yl)pyridin-3-yl)pivalamide]	0.0052	0.115

From patent US10081631B2, “2-(1H-indazol-3-yl)-1H-imidazo[4,5-C]pyridine and therapeutic uses thereof” (Samumed, LLC, priority 2014, dated 2018)
